Results from the supplement of paper PMC10307832.

Tests used:
Assay in all cases: relative viability (nuclei count vs DMSO), 5 days (fraction); higher = more cells survive
[1] = compound: O=C(Nc1c[nH]nc1-c1nc2ccc(CN3CCOCC3)cc2[nH]1)NC1CC1 [AT9283] + Nc1ncn([C@H]2C[C@H](O)[C@@H](CO)O2)c(=O)n1 [Decitabine] (partner 2 µM)
Procedure, shortened: (§1)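 Dosing by pin tool came one day after lung cancer cell lines were seeded in 1536-well plates, using either one drug or a fixed anchor-drug dose plus five library-drug doses (not always all listed) in √10 steps. After 5 days, nuclei were counted on 4× images. Relative viability is treated-well nuclei count divided by vehicle-well nuclei count, and values are medians of duplicate plates.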

[2] = compound: C#Cc1cccc(Nc2ncnc3cc(OCCOC)c(OCCOC)cc23)c1 [Erlotinib] + O=C(c1cc(Cc2n[nH]c(=O)c3ccccc23)ccc1F)N1CCN(C(=O)C2CC2)CC1 [Olaparib] (partner 8 µM)
Procedure, shortened: as §1

[3] = compound: C#Cc1cccc(Nc2ncnc3cc(OCCOC)c(OCCOC)cc23)c1 [Erlotinib] + NC(=O)Nc1cc(-c2cccc(F)c2)sc1C(=O)N[C@H]1CCCNC1 [AZD7762] (partner 0.2 µM)
Procedure, shortened: as §1

[4] = compound: C#Cc1cccc(Nc2ncnc3cc(OCCOC)c(OCCOC)cc23)c1 [Erlotinib] + CC(=O)Nc1cccc(-n2c(=O)n(C3CC3)c(=O)c3c(Nc4ccc(I)cc4F)n(C)c(=O)c(C)c32)c1 [Trametinib] (partner 0.02 µM)
Procedure, shortened: as §1

[5] = compound: O=C(Nc1c[nH]nc1-c1nc2ccc(CN3CCOCC3)cc2[nH]1)NC1CC1 [AT9283] + CS(=O)(=O)CCNCc1ccc(-c2ccc3ncnc(Nc4ccc(OCc5cccc(F)c5)c(Cl)c4)c3c2)o1 [Lapatinib] (partner 2 µM)
Procedure, shortened: as §1

Cell Line | relative viability ([1]; first compound 0.003 µM) | relative viability ([1]; first compound 0.03 µM) | relative viability ([1]; first compound 0.09487 µM) | relative viability ([1]; first compound 0.3 µM) | relative viability ([2]; first compound 0.02 µM) | relative viability ([2]; first compound 0.2 µM) | relative viability ([2]; first compound 0.6325 µM) | relative viability ([2]; first compound 2 µM) | relative viability ([3]; first compound 0.02 µM) | relative viability ([3]; first compound 0.2 µM) | relative viability ([3]; first compound 0.6325 µM) | relative viability ([3]; first compound 2 µM) | relative viability ([4]; first compound 0.02 µM) | relative viability ([4]; first compound 0.2 µM) | relative viability ([4]; first compound 0.6325 µM) | relative viability ([4]; first compound 2 µM) | relative viability ([5]; first compound 0.003 µM) | relative viability ([5]; first compound 0.03 µM) | relative viability ([5]; first compound 0.09487 µM) | relative viability ([5]; first compound 0.3 µM)
201T | 0.654 | 0.849 | 0.322 | 0.345 | 0.846 | 0.85 | 0.788 | 0.774 | 0.596 | 0.57 | 0.619 | 0.546 | 0.709 | 0.675 | 0.694 | 0.636 | 0.816 | 0.96 | 0.904 | 0.409
A549 | 0.136 | 0.114 | 0.0516 | 0.05 | 0.345 | 0.303 | 0.332 | 0.269 | – | – | – | – | – | – | – | – | 1.02 | 0.0919 | 0.0686 | 0.0884
A-427 | 0.6 | 0.494 | 0.239 | 0.248 | 0.792 | 0.757 | 0.713 | 0.716 | 0.735 | 0.763 | 0.843 | 0.767 | 0.885 | 0.752 | 0.882 | 0.749 | 0.936 | 0.897 | 0.671 | 0.219
ABC-1 | 1.3 | 0.513 | 0.346 | 0.346 | – | 1.01 | 1.03 | 0.769 | 0.789 | – | 0.647 | 0.507 | – | – | – | – | 0.938 | 1.19 | 0.476 | 0.46
BEN | 0.52 | 0.557 | 0.347 | 0.347 | 1.3 | 1.06 | 1.14 | 1.03 | 0.554 | 0.824 | 0.843 | – | 1.01 | 0.883 | 1.24 | 1.16 | 0.582 | 0.546 | 0.158 | 0.243
CAL-12T | – | – | – | – | 0.742 | 0.674 | 0.488 | 0.474 | 0.63 | 0.688 | 0.529 | 0.544 | 0.334 | 0.279 | 0.31 | 0.173 | 0.587 | 0.299 | 0.23 | 0.238
COR-L23 | 0.385 | 0.304 | 0.169 | 0.168 | 0.38 | 0.309 | 0.442 | 0.308 | – | – | – | – | 0.67 | 0.636 | 0.617 | 0.545 | 1 | 0.12 | 0.129 | 0.172
COR-L 105 | 0.67 | 0.394 | 0.317 | 0.328 | 0.638 | 0.603 | 0.47 | 0.294 | – | – | – | – | 0.455 | 0.336 | 0.415 | 0.362 | 0.371 | 0.256 | 0.223 | 0.337
Calu-6 | – | – | – | – | 0.602 | 0.546 | 0.552 | 0.519 | – | – | – | – | – | – | – | – | 1.1 | 0.33 | 0.245 | 0.27
ChaGo-K-1 | 0.483 | 0.523 | 0.26 | 0.222 | 0.426 | 0.466 | 0.391 | 0.402 | – | 0.922 | 0.845 | 0.76 | 0.886 | 0.874 | 0.909 | 0.832 | – | – | – | –
